Assay results reported in ChEMBL document CHEMBL1201862, “PubChem BioAssay data set” (2004).
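96-well plates; 48 h exposure; 5 concentrations. Endpoints by linear interpolation between flanking doses. Not reached: highest tested concentration assigned. GI50 is the concentration that inhibits growth by half.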 Active and inactive are the calls of the source. Rule as the data show it: active = GI50 up to about 1.1 µM and inactive = higher.

What was measured:
Assay in all cases: growth of human tumour cells (NCI), 48 h
[1] = tested on: LOX IMVI
[2] = tested on: SF-539
[3] = tested on: T47D
[4] = tested on: SN12C
[5] = tested on: PC-3
[6] = tested on: EKVX
[7] = tested on: NCI-H226
[8] = tested on: SF-295
[9] = tested on: RPMI-8226
[10] = tested on: SK-OV-3
[11] = tested on: SNB-75
[12] = tested on: COLO 205
[13] = tested on: CCRF-CEM
[14] = tested on: TK-10
[15] = tested on: CAKI-1
[16] = tested on: NCI-H23
[17] = tested on: HL-60
[18] = tested on: DU-145
[19] = tested on: SK-MEL-28
[20] = tested on: ACHN
[21] = tested on: Malme-3M
[22] = tested on: HCC 2998
[23] = tested on: U-251
[24] = tested on: MDA-N
[25] = tested on: HCT-116
[26] = tested on: OVCAR-8
[27] = tested on: 786-0
[28] = tested on: UACC-257
[29] = tested on: NCI-H460
[30] = tested on: SNB-19
[31] = tested on: Hs-578T
[32] = tested on: NCI/ADR-RES
[33] = tested on: BT-549
[34] = tested on: A498
[35] = tested on: SR
[36] = tested on: HCT-15
[37] = tested on: SK-MEL-5
[38] = tested on: UACC-62
[39] = tested on: HT-29
[40] = tested on: A549
[41] = tested on: MDA-MB-435
[42] = tested on: MOLT-4
[43] = tested on: SW-620
[44] = tested on: SF-268
[45] = tested on: IGROV-1
[46] = tested on: HOP-62
[47] = tested on: RXF 393
[48] = tested on: OVCAR-4
[49] = tested on: SK-MEL-2
[50] = tested on: MDA-MB-231
[51] = tested on: HOP-92
[52] = tested on: MCF7
[53] = tested on: UO-31
[54] = tested on: K562
[55] = tested on: OVCAR-5
[56] = tested on: NCI-H522
[57] = tested on: OVCAR-3
[58] = tested on: KM12
[59] = tested on: M14

CN(C)CCn1c(=O)c2ccc3c4c(nn3CCN(C)C)c3cc(N)ccc3n(c1=O)c24 was tested, and the GI50 [1] was 15.4 nM (active), the GI50 [2] was 29.1 nM (active) and the GI50 [3] was 31.2 nM (active). For the same compound, the GI50 [4] was < 19.9 nM (active), the GI50 [5] was < 15.3 nM (active) and the GI50 [6] was 50.7 nM (active). The GI50 [7] was 79.1 nM (active), the GI50 [8] was 14.5 nM (active) and the GI50 [9] was < 10 nM (active). The GI50 [10] was < 21.1 nM (active), the GI50 [11] was < 10 nM (active) and the GI50 [12] was < 23.9 nM (active). The GI50 [13] was < 12.6 nM (active), the GI50 [14] was 51.3 nM (active) and the GI50 [15] was 74.1 nM (active). For the same compound, the GI50 [16] was < 10 nM (active), the GI50 [17] was 27.9 nM (active) and the GI50 [18] was < 16.7 nM (active). For the same compound, the GI50 [19] was 64.6 nM (active), the GI50 [20] was < 16.1 nM (active) and the GI50 [21] was 66.7 nM (active). For the same compound, the GI50 [22] was < 10 nM (active), the GI50 [23] was < 11.1 nM (active) and the GI50 [24] was < 23.9 nM (active). For the same compound, the GI50 [25] was < 14.5 nM (active), the GI50 [26] was 23.8 nM (active) and the GI50 [27] was < 10 nM (active). The GI50 [28] was 118 nM (active), the GI50 [29] was < 10 nM (active) and the GI50 [30] was < 11.1 nM (active). The GI50 [31] was 91 nM (active), the GI50 [32] was 34.9 nM (active) and the GI50 [33] was 127 nM (active). For the same compound, the GI50 [34] was 61 nM (active), the GI50 [35] was < 10.3 nM (active) and the GI50 [36] was < 16.9 nM. The GI50 [37] was 51.6 nM (active), the GI50 [38] was 90.2 nM (active) and the GI50 [39] was < 10 nM (active). The GI50 [40] was < 10 nM (active), the GI50 [41] was < 20.9 nM (active) and the GI50 [42] was < 11 nM (active). The GI50 [43] was < 14.8 nM (active), the GI50 [44] was < 10 nM (active) and the GI50 [45] was < 15 nM (active). The GI50 [46] was < 10 nM (active), the GI50 [47] was < 32 nM (active) and the GI50 [48] was 16.5 nM (active). The GI50 [49] was < 29.2 nM (active), the GI50 [50] was < 31.3 nM (active) and the GI50 [51] was 191 nM (active). The GI50 [52] was < 20.7 nM (active), the GI50 [53] was < 13.2 nM (active) and the GI50 [54] was < 13.3 nM (active). For the same compound, the GI50 [55] was < 27 nM (active), the GI50 [56] was 20 nM (active) and the GI50 [57] was < 15.1 nM (active). The GI50 [58] was < 19.6 nM (active) and the GI50 [59] was 25.9 nM (active).
